{
  "source": "patent US10561638B2",
  "about": "“Methods for treating dependence” (Biotie Therapies, Inc., priority 2007, dated 2020)",
  "test_system": "plasma noradrenaline, dopamine and epinephrine",
  "experiment": "Plasma catecholamines in beagle dogs, 2 mg/kg b.i.d. for 15 days",
  "type": "in vivo",
  "procedure": "Male beagle dogs were randomized to be orally dosed with either empty capsules (control) or nepicastat (2 mg·kg^−1, po, b.i.d.) for 15 days. Daily venous blood samples were drawn, six hours after the first dose, for measurement of plasma concentrations of dopamine and noradrenaline. The samples were collected in tubes containing heparin and glutathione, centrifuged at −4° C. and the separated plasma was stored at −70° C. until analysis. […] When compared to the control group, nepicastat (2 mg·kg^−1, b.i.d, po) produced significant decreases in plasma concentrations of noradrenaline and increases in plasma concentrations of dopamine and dopamine/noradrenaline ratio.\nThe chronic effects of nepicastat (14.5 day treatment) on the plasma DA/NE ratio were investigated in normal dogs. Animals were randomized to receive, orally, either placebo (empty capsule) or nepicastat (2 mg/kg, b.i.d) for 14.5 days. Daily blood samples were drawn, 6 h after the first dose, for the measurement of plasma concentrations of DA and NE. The samples were collected in tubes containing heparin and glutathione, centrifuged at −4° C. and stored at −70° C. until analysis.\nMale Beagle dogs (Marshall farms, North Rose, N.Y.) weighing between 9-16 kg were used in the study. The animals were allowed water ad libitum and given food once daily at ˜10.00 AM. Animals were randomly assigned to one of the following treatment groups (n=8/group): placebo (empty capsule), or nepicastat at 2 mg/kg b.i.d (4 mg/kg/day). Each animal received 2 doses daily, morning and afternoon (8-10 hours apart). Daily blood samples (10 ml) were drawn 6 h after the AM dose for measurement of plasma levels of nepicastat and catecholamines. The blood was collected in tubes containing heparin and glutathione and centrifuged at −4° C. within 1 h of collection. The plasma was separated and divided into two samples, one for the measurement of plasma catecholamines and the other for analysis of nepicastat.\nPlasma norepinephrine (NE), dopamine (DA) and epinephrine (EPI) were analyzed by HPLC using electrochemical detection. Plasma concentration of nepicastat was determined by HPLC using electrochemical detection.\nThe BQL (below quantitation limit) in the DA concentration of dog 1 at day 10 was set to 0; 1n (0) was set to missing. The analysis was performed using a mixed model (using PROC MIXED) with the day and treatment categorical variables being fixed and the dog within treatment being a random factor. For the fixed effects, the interaction between the day and the treatment was included, since the difference between the drug and placebo groups varies from day to day. Contrasts were calculated using the CONTRAST statement, which correctly takes into account the error terms for each particular contrast. In particular, the contrasts comparing the treatment group to the […] uses the dog mean square for its error term, while the comparisons used to establish steady state are all within dog comparisons, and require the error mean square.\nThe time period of steady state was calculated using the Helmert transformation (cf. SAS PROC GLM manual). These transformations compare each treatment mean with the average of the treatment means of the time points following. The steady state period is defined to start at the first time point following the maximum time at which the Helmert contrast is statistically significant. However, since this method can fail to detect a smoothly changing process, as appears might be the case here, the slope of the analyte concentration during the steady state period also was calculated. The slope during the steady state period was calculated for each dog individually, yielding one slope per animal. Univariate statistics on the slopes were then calculated, with Normal theory confidence intervals built on the mean slope, and the hypothesis of slope equaling zero was tested, and its Normal theory p-value was calculated. […]",
  "data": [
    {"smiles": "Cl.NCc1c[nH]c(=S)n1[C@H]1CCc2c(F)cc(F)cc2C1", "note": "[nepicastat, (S)-5-Aminomethyl-1-(5,7-difluoro-1,2,3,4-tetrahydronaphth-2-yl)-2,3-dihydro-2-thioxo-1H-imidazole hydrochloride]", "values": [
      {"measurement": "day of peak decrease in plasma EPI", "value": 8, "unit": "days"},
      {"measurement": "day of peak decrease in plasma NE", "value": 6, "unit": "days"},
      {"measurement": "day of peak increase in plasma DA", "value": 7, "unit": "days"},
      {"measurement": "day of peak increase in plasma DA/NE ratio", "value": 6, "unit": "days"},
      {"measurement": "days of dosing until decrease in plasma noradrenaline attained significance", "value": 4, "unit": "days"},
      {"measurement": "decrease in plasma EPI vs placebo", "value": 1.91, "unit": "fold"},
      {"measurement": "decrease in plasma NE vs placebo", "value": 2.1, "unit": "fold"},
      {"measurement": "increase in plasma DA vs placebo", "value": 7.5, "unit": "fold"},
      {"measurement": "increase in plasma DA/NE ratio vs placebo", "value": 13.6, "unit": "fold"},
      {"measurement": "time of peak effect on plasma DA/NE ratio", "value": "6 to 7", "unit": "days"},
      {"measurement": "time to steady-state of effect on plasma DA", "value": "~8", "unit": "days post-dose"},
      {"measurement": "time to steady-state of effect on plasma EPI", "value": "~6", "unit": "days post-dose"},
      {"measurement": "time to steady-state of effect on plasma NE", "value": "approximately 4 days post-dose"}
    ]}
  ]
}
